One series deals with T1, hM4 (Homo sapiens, UniProt P08173).
T1 sequence (P08173 1-479): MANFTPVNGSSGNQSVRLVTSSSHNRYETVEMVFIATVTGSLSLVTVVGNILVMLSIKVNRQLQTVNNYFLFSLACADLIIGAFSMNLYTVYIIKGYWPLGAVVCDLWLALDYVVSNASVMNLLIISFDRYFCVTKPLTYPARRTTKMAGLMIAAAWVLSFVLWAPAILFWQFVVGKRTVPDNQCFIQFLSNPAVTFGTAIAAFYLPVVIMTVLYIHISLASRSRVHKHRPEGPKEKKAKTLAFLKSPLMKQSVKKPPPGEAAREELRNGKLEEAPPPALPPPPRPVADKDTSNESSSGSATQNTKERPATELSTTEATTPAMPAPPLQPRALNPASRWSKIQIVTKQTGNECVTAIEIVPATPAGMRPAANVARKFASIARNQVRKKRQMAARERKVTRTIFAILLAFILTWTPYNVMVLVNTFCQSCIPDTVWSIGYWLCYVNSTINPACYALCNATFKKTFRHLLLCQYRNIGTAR
It counts as cell-based. As to conditions: for hM4 pEC50 (±SEM): hM4/Gqi5-CHO cells, EC20 fixed concentration of acetylcholine, mean of n=3.

Series [1] is described as follows: Predicted hepatic clearance from human hepatic microsomal CLint. Type of series: in vitro ADME. As to conditions: based on hepatic microsomal CLint.
Series [2] in a line: Predicted hepatic clearance from rat hepatic microsomal CLint. Type of series: in vitro ADME. Particulars: based on hepatic microsomal CLint.
The next series deals with human P-gp (Homo sapiens, UniProt P08183). Briefly: P-gp efflux in MDCK-MDR1 cells. It counts as in vitro ADME.
The next series in a line: Rat in vivo PK. Particulars: rat in vivo PK studies.
A further series addresses T2, human M4 (Homo sapiens, UniProt P08173).
T2 sequence (P08173 1-479): T1 sequence (P08173 1-479)
The series is described as follows: ACh CRC fold-shift experiments. It counts as cell-based. Particulars: operational model.

A further series can be described thus: Predicted human PK. Particulars: based on moderate and small predicted CL and Vss.
The next series has as its system CYP450. Briefly: CYP450 time-dependent inhibition. It counts as in vitro ADME.
The target of another series is cynomolgus monkey M4 (Macaca fascicularis, UniProt G7PQB4). The series is described as follows: ACh CRC fold-shift experiments. It counts as cell-based. As to conditions: operational model.
Another series in a line: Dog in vivo PK. As to conditions: female, mongrel, plasma, iv.

This is an account of results in paper PMC5518475 (Bioorganic & medicinal chemistry letters, 2017).

By clearance is commonly meant the volume of plasma or blood freed of the substance per unit of time.

human P-gp, sequence (P08183 whole entry): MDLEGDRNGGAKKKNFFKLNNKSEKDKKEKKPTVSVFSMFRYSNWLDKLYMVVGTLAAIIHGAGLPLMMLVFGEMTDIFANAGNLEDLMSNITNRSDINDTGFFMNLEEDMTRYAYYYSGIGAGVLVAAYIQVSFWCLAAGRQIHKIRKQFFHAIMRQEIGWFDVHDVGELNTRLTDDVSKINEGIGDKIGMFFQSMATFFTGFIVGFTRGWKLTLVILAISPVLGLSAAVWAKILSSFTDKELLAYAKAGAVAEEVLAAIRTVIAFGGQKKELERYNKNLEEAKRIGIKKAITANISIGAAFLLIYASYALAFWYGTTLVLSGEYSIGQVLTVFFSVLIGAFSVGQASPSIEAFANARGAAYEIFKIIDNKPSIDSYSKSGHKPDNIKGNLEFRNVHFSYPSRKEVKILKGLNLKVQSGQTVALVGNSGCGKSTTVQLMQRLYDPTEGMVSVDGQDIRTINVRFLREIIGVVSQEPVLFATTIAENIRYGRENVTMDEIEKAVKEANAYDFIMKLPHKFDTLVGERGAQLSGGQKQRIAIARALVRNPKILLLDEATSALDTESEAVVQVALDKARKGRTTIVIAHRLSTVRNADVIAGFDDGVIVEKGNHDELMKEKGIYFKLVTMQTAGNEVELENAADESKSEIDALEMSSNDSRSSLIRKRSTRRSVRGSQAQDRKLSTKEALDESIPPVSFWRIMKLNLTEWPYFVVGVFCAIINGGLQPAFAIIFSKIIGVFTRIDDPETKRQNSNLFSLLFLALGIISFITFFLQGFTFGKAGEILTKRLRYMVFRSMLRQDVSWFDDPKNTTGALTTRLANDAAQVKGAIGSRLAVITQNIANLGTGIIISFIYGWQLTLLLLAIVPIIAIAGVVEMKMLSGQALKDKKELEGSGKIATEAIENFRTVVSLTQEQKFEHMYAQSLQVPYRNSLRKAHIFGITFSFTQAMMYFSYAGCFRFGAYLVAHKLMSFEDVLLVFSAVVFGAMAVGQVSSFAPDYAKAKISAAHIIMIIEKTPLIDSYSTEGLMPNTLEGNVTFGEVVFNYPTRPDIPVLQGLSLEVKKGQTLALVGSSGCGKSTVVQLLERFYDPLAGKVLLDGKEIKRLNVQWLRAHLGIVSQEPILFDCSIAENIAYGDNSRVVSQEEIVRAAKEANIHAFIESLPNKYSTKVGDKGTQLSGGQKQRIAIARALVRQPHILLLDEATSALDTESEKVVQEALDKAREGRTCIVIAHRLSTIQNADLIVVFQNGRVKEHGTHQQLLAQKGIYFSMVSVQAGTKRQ

Take `Cc1nnc2sc(C(=O)NC3CN(c4ccc(S(=O)(=O)C(F)(F)F)cc4)C3)c(N)c2c1C` [Compound 17f]: the “weaker hM4 activity compared to that of 17j” value on hM4 is on record as ~ 10 fold.

Turning to `Cc1nnc2sc(C(=O)NC3CN(c4nc5cccnc5s4)C3)c(N)c2c1C` [Compound 16c], the “predicted CLhep” value is recorded as 12 mL/min/kg in series [1] and 41 mL/min/kg in series [2]. Further, at hM4, the “hM4 pEC50 (±SEM)” value is 7.04±0.16.

`Cc1nnc2sc(C(=O)NC3CN(c4ccc(C(F)(F)F)nc4)C3)c(N)c2c1C` [Compound 16j]: the “predicted CLhep” value in series [1] is 5.6 mL/min/kg; in series [2], 18 mL/min/kg.

Consider `Cc1cccc(OC(=O)N2CC(NC(=O)c3sc4nnc(C)c(C)c4c3N)C2)c1` [Compound 6c], for which the “hM4 pEC50 (±SEM)” value at hM4 is 7.23±0.17.

Turning to `Cc1nnc2sc(C(=O)NC3CN(c4ccncn4)C3)c(N)c2c1C` [Compound 16h], the “hM4 pEC50 (±SEM)” value at hM4 is given as 7.48±0.17.

As to `Cc1nnc2sc(C(=O)NC3CN(c4cc(F)nc(F)c4)C3)c(N)c2c1C` [Compound 16q], on human P-gp, the “human P-gp efflux substrate” value was “substrates for human P-gp efflux”.

Consider `Cc1nnc2sc(C(=O)NC3CN(C(=O)OCc4ccccc4)C3)c(N)c2c1C` [Compound 6a], for which the “hM4 pEC50 (±SEM)” value on hM4 is recorded as 7.62±0.19.

Turning to `Cc1nnc2sc(C(=O)NC3CN(c4ccccn4)C3)c(N)c2c1C` [Compound 16d], the “hM4 pEC50 (±SEM)” value at hM4 turned out to be 6.99±0.18.

`Cc1nnc2sc(C(=O)NC3CN(c4ccnc(Cl)c4)C3)c(N)c2c1C` [Compound 16n]: the “hM4 pEC50 (±SEM)” value on hM4 turned out to be 6.80±0.19.

Regarding `Cc1nnc2sc(C(=O)NC3CN(c4ccc(S(=O)(=O)C(F)F)cc4)C3)c(N)c2c1C` [Compound 17g], at hM4, the “weaker hM4 activity compared to that of 17j” value is approximately 40 fold and the “hM4 pEC50 (±SEM)” value is on record as 6.63±0.29.

On to `Cc1nnc2sc(C(=O)NC3CN(c4ccncc4Cl)C3)c(N)c2c1C` [Compound 16p], for which the “rat in vivo PK finding on metabolism” value in “Rat in vivo PK” is recorded as “evidence for extrahepatic non-CYP450 metabolism”.

Take `Cc1nnc2sc(C(=O)NC3CN(C(=O)c4ccccc4)C3)c(N)c2c1C` [Compound 6f]: the “hM4 pEC50 (±SEM)” value on hM4 is 6.22±0.25.

`Cc1nnc2sc(C(=O)NC3CN(c4nc5ccccc5o4)C3)c(N)c2c1C` [Compound 16b]: the “hM4 pEC50 (±SEM)” value at hM4 is 6.45±0.19.

For `COc1cc(N2CC(NC(=O)c3sc4nnc(C)c(C)c4c3N)C2)ccn1` [Compound 16o], in “Rat in vivo PK”, the “rat in vivo PK finding on metabolism” value is on record as “evidence for extrahepatic non-CYP450 metabolism”.

For `Cc1nnc2sc(C(=O)NC3CN(c4cccnc4)C3)c(N)c2c1C` [Compound 16e], the “human P-gp efflux substrate” value at human P-gp is “substrates for human P-gp efflux”.

As to `Cc1nnc2sc(C(=O)NC3CN(c4cccc(F)c4F)C3)c(N)c2c1C` [Compound 17j], in “Ames test”, the Ames test result was “no evidence of mutagenesis”. The “human M4 αβ” value at human M4 turned out to be 380. Also, in “Predicted human PK”, the “predicted human t1/2” value is 1 to 2 h. Moreover, in the series with CYP450, the “time-dependent CYP450 inhibition” value is on record as “no evidence for time-dependent inhibition”. Moreover, the “cynomolgus monkey M4 αβ” value at cynomolgus monkey M4 is on record as 120. The same molecule gave a clearance in the series “Dog in vivo PK” of 17 mL/min/kg.

Consider `Cc1nnc2sc(C(=O)NC3CN(c4ccc(F)cc4F)C3)c(N)c2c1C` [Compound 17h], for which the “hM4 pEC50 (±SEM)” value at hM4 amounted to 7.49±0.12.

As to `Cc1nnc2sc(C(=O)NC3CN(c4cccnc4F)C3)c(N)c2c1C` [Compound 16i], the “hM4 pEC50 (±SEM)” value on hM4 worked out at 7.74±0.22. Further, the “human P-gp efflux substrate” value on human P-gp is on record as “substrates for human P-gp efflux”.
